Data reported in PubChem BioAssay AID248 (DTP/NCI, 2004).
Values joined by “and” are separate entries in the source; they are usually repeats but may differ in a detail not shown here. Equal entries are not always repeated. Toxic doses and inconclusive results are not listed. No stated cut-off is given here; in the data, active means T/C of 150% or more; inactive means T/C below 125%.

Test system: L1210 leukemia ip in BDF1 mice, survival T/C
Test: NCI In Vivo Anticancer Drug Screen. Data for tumor model L1210 Leukemia (intraperitoneal) in B6D2F1 (BDF1) mice
Details: endpoint: mean survival time, higher = longer survival
How it was run: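 Mice bearing the transplanted tumor received compound or vehicle. Survival of the treated group was divided by that of the vehicle-treated control group to give the ratio.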

[1] = dose: 50.0 mg/kg/injection, schedule: Q01DX009 (ip), vehicle: Klucel (hydroxypropylcellulose) (HPC)
[2] = dose: 100.0 mg/kg/injection, schedule: Q01DX009 (ip), vehicle: Klucel (hydroxypropylcellulose) (HPC)
[3] = dose: 100.0 mg/kg/injection, schedule: Q01DX001 (ip), vehicle: saline
[4] = dose: 300.0 mg/kg/injection, schedule: Q01DX001 (ip), vehicle: saline
[5] = dose: 100.0 mg/kg/injection, schedule: Q04DX003 (ip), vehicle: Klucel (hydroxypropylcellulose) (HPC)
[6] = dose: 200.0 mg/kg/injection, schedule: Q01DX009 (ip), vehicle: Klucel (hydroxypropylcellulose) (HPC)
[7] = dose: 200.0 mg/kg/injection, schedule: Q04DX003 (ip), vehicle: Klucel (hydroxypropylcellulose) (HPC)
[8] = dose: 100.0 mg/kg/injection, schedule: Q01DX001 (ip), vehicle: carboxymethylcellulose (CMC)
[9] = dose: 200.0 mg/kg/injection, schedule: Q01DX001 (ip), vehicle: carboxymethylcellulose (CMC)
[10] = dose: 400.0 mg/kg/injection, schedule: Q04DX003 (ip), vehicle: Klucel (hydroxypropylcellulose) (HPC)

Measured: T/C

CC(=O)[O][Hg][c]1cc[c]([Hg][O]C(C)=O)s1
inactive: dose: 3.0 mg/kg/injection, schedule: Q01DX009 (ip), vehicle: Klucel (hydroxypropylcellulose) (HPC) 91 % of control | dose: 6.0 mg/kg/injection, schedule: Q01DX009 (ip), vehicle: Klucel (hydroxypropylcellulose) (HPC) 89 % of control | dose: 12.5 mg/kg/injection, schedule: Q04DX003 (ip), vehicle: Klucel (hydroxypropylcellulose) (HPC) 100 % of control

CCc1ccccc1NC(=O)Nc1ccc(Cl)cc1
inactive: dose: 100.0 mg/kg/injection, schedule: Q01DX009 (ip), vehicle: gum acacia 96 % of control | dose: 100.0 mg/kg/injection, schedule: Q04DX003 (ip), vehicle: gum acacia 95 % of control | dose: 200.0 mg/kg/injection, schedule: Q01DX009 (ip), vehicle: gum acacia 96 % of control | dose: 200.0 mg/kg/injection, schedule: Q04DX003 (ip), vehicle: gum acacia 98 % of control | dose: 400.0 mg/kg/injection, schedule: Q01DX009 (ip), vehicle: gum acacia 97 % of control | dose: 400.0 mg/kg/injection, schedule: Q04DX003 (ip), vehicle: gum acacia 97 % of control

O=C(OC(c1c(Cl)cccc1Cl)c1nccc2ccccc12)c1ccccc1 (stereo not drawn)
inactive: dose: 100.0 mg/kg/injection, schedule: Q01DX001 (ip), vehicle: steriod suspending solution 95 % of control | dose: 200.0 mg/kg/injection, schedule: Q01DX001 (ip), vehicle: steriod suspending solution 97 % of control | dose: 400.0 mg/kg/injection, schedule: Q01DX001 (ip), vehicle: steriod suspending solution 88 % of control

N=C(N)SC1c2ccccc2-c2ccccc21
inactive: dose: 10.0 mg/kg/injection, schedule: Q04DX002 (ip), vehicle: Klucel (hydroxypropylcellulose) (HPC) 97 % of control | dose: 20.0 mg/kg/injection, schedule: Q04DX002 (ip), vehicle: Klucel (hydroxypropylcellulose) (HPC) 101 % of control | dose: 40.0 mg/kg/injection, schedule: Q04DX002 (ip), vehicle: Klucel (hydroxypropylcellulose) (HPC) 101 % of control

NC(=O)c1ccccc1OC(=O)Nc1ccccc1
inactive: [1] 103 % of control | [2] 101 % of control | dose: 100.0 mg/kg/injection, schedule: Q04DX002 (ip), vehicle: Klucel (hydroxypropylcellulose) (HPC) 89 % of control | dose: 200.0 mg/kg/injection, schedule: Q04DX002 (ip), vehicle: Klucel (hydroxypropylcellulose) (HPC) 99 % of control

Cc1ccc(C)c(Nc2nc(Cl)nc3ncn(C)c23)c1
inactive: dose: 100.0 mg/kg/injection, schedule: Q01DX001 (ip), vehicle: other 103 % of control | dose: 100.0 mg/kg/injection, schedule: Q04DX003 (ip), vehicle: other 102 % of control | dose: 200.0 mg/kg/injection, schedule: Q01DX001 (ip), vehicle: other 90 % of control | dose: 200.0 mg/kg/injection, schedule: Q04DX003 (ip), vehicle: other 117 % of control | dose: 400.0 mg/kg/injection, schedule: Q01DX001 (ip), vehicle: other 94 % of control | dose: 400.0 mg/kg/injection, schedule: Q04DX003 (ip), vehicle: other 110 % of control

Cn1c(=O)c2c(nc(OCC3CCCO3)n2C)n(C)c1=O (stereo not drawn)
inactive: [3] 106 % of control | dose: 200.0 mg/kg/injection, schedule: Q01DX001 (ip), vehicle: saline 100 % of control

Clc1ccc(C2NC(c3ccc(Cl)cc3)NC(c3ccc(Cl)cc3)N2)cc1 (stereo not drawn)
inactive: dose: 75.0 mg/kg/injection, schedule: Q01DX001 (ip), vehicle: saline 95 % of control | dose: 150.0 mg/kg/injection, schedule: Q01DX001 (ip), vehicle: saline 95 % of control | [4] 90 % of control

CCC(C)C(NN)C(=O)O (stereo not drawn)
inactive: dose: 12.0 mg/kg/injection, schedule: Q01DX Z (ip), vehicle: carboxymethylcellulose (CMC) 113 % of control | dose: 25.0 mg/kg/injection, schedule: Q01DX Z (ip), vehicle: carboxymethylcellulose (CMC) 112 % of control | dose: 50.0 mg/kg/injection, schedule: Q01DX Z (ip), vehicle: carboxymethylcellulose (CMC) 110 % of control | dose: 100.0 mg/kg/injection, schedule: Q01DX Z (ip), vehicle: carboxymethylcellulose (CMC) 118 % of control | dose: 200.0 mg/kg/injection, schedule: Q01DX015 (ip), vehicle: carboxymethylcellulose (CMC) 104 % of control

CC(=O)C1(c2ccccc2)OC1c1ccccc1 (stereo not drawn)
inactive: [1] 96 % of control | [2] 112 % of control | [5] 90 % of control | [6] 96 % of control | [7] 95 % of control

CCOc1ccc(CO)cc1
inactive: dose: 100.0 mg/kg/injection, schedule: Q04DX003 (ip), vehicle: saline with Tween-80 97 % of control | dose: 200.0 mg/kg/injection, schedule: Q04DX003 (ip), vehicle: saline with Tween-80 100 % of control | dose: 400.0 mg/kg/injection, schedule: Q04DX003 (ip), vehicle: saline with Tween-80 89 % of control

C[SH+]c1ccccc1N=Cc1ccccn1.C[SH+]c1ccccc1N=Cc1ccccn1.[Ni+2].[O-][Cl+3]([O-])([O-])[O-]
inactive: dose: 88.8 mg/kg/injection, schedule: Q01DX001 (ip), vehicle: saline 93 % of control and 96 % of control | [3] 105 % of control | dose: 133.4 mg/kg/injection, schedule: Q01DX001 (ip), vehicle: saline 96 % of control and 105 % of control | [4] 95 % of control and 102 % of control

Nc1nc(N)c2cc(CCc3ccccc3)ccc2n1
inactive: dose: 50.0 mg/kg/injection, schedule: Q01DX001 (ip), vehicle: carboxymethylcellulose (CMC) 95 % of control | [8] 95 % of control | [5] 95 % of control | [9] 101 % of control | [7] 90 % of control

CC1SC(=S)N(c2ccccc2)C1=O (stereo not drawn)
inactive: dose: 100.0 mg/kg/injection, schedule: Q01DX009 (ip), vehicle: saline with Tween-80 92 % of control | dose: 200.0 mg/kg/injection, schedule: Q01DX009 (ip), vehicle: saline with Tween-80 106 % of control

O=C(/C=C\c1ccccc1)/C=C/c1ccccc1
inactive: [2] 90 % of control | dose: 100.0 mg/kg/injection, schedule: Q01DX009 (sc), vehicle: olive oil, sesame oil, peanut oil 113 % of control | [5] 95 % of control | [6] 95 % of control | dose: 200.0 mg/kg/injection, schedule: Q01DX009 (sc), vehicle: olive oil, sesame oil, peanut oil 98 % of control | [7] 98 % of control | dose: 400.0 mg/kg/injection, schedule: Q01DX009 (sc), vehicle: olive oil, sesame oil, peanut oil 102 % of control | [10] 98 % of control

Cc1cc(C)c(O)c(CN(C)Cc2c(C)[nH]c(=O)[nH]c2=O)c1
inactive: [8] 98 % of control | [9] 91 % of control | dose: 400.0 mg/kg/injection, schedule: Q01DX001 (ip), vehicle: carboxymethylcellulose (CMC) 91 % of control

Brc1ccc(N=Nc2ccccc2)cc1
inactive: [5] 103 % of control | [7] 97 % of control | [10] 103 % of control

CS(=O)(=O)OCCN(CCOS(C)(=O)=O)c1ccc(C=Nc2ccc(C(=O)O)cc2)c(Cl)c1
inactive: [5] 120 % of control | [7] 105 % of control | [10] 86 % of control

C[Se]c1ncnc2c1ccn2C1OC(CO)C(O)C1O (stereo not drawn)
inactive: dose: 12.5 mg/kg/injection, schedule: Q01DX005 (ip), vehicle: saline 104 % of control | dose: 25.0 mg/kg/injection, schedule: Q01DX005 (ip), vehicle: saline 106 % of control | dose: 50.0 mg/kg/injection, schedule: Q01DX005 (ip), vehicle: saline 102 % of control

O=P(O)(CO)CO
inactive: dose: 100.0 mg/kg/injection, schedule: Q04DX003 (ip), vehicle: saline 109 % of control | dose: 200.0 mg/kg/injection, schedule: Q04DX003 (ip), vehicle: saline 95 % of control

COC(=O)C1CCC2(C)CCC(=O)C(C)C2C1 (stereo not drawn)
inactive: dose: 100.0 mg/kg/injection, schedule: Q01DX001 (ip), vehicle: Klucel (hydroxypropylcellulose) (HPC) 101 % of control | [5] 104 % of control | dose: 200.0 mg/kg/injection, schedule: Q01DX001 (ip), vehicle: Klucel (hydroxypropylcellulose) (HPC) 104 % of control | [7] 106 % of control | dose: 400.0 mg/kg/injection, schedule: Q01DX001 (ip), vehicle: Klucel (hydroxypropylcellulose) (HPC) 92 % of control | [10] 104 % of control

CCOC(=O)C(C(=S)Nc1ccccc1)=S(C)C
inactive: dose: 100.0 mg/kg/injection, schedule: Q04DX002 (ip), vehicle: saline with Tween-80 87 % of control | dose: 200.0 mg/kg/injection, schedule: Q04DX002 (ip), vehicle: saline with Tween-80 87 % of control | dose: 400.0 mg/kg/injection, schedule: Q04DX002 (ip), vehicle: saline with Tween-80 91 % of control

CSC(N)=NC#N
inactive: dose: 100.0 mg/kg/injection, schedule: Q04DX002 (ip), vehicle: other 111 % of control | dose: 200.0 mg/kg/injection, schedule: Q04DX002 (ip), vehicle: other 93 % of control | dose: 400.0 mg/kg/injection, schedule: Q04DX002 (ip), vehicle: other 107 % of control
